# Data taken from patent publication US20040009949A1, “Method for treating autoimmune or inflammatory diseases with combinations of inhibitory oligonucleotides and small molecule antagonists of immunostimulatory CpG nucleic acids” (Coley Pharmaceutical Group, Inc., priority 2002, published 2004).
# Biological target: T1, human TLR9 (Homo sapiens, UniProt Q9NR96)
# T1 construct: expressed in transfected cells
# T1 sequence (Q9NR96 26-1032): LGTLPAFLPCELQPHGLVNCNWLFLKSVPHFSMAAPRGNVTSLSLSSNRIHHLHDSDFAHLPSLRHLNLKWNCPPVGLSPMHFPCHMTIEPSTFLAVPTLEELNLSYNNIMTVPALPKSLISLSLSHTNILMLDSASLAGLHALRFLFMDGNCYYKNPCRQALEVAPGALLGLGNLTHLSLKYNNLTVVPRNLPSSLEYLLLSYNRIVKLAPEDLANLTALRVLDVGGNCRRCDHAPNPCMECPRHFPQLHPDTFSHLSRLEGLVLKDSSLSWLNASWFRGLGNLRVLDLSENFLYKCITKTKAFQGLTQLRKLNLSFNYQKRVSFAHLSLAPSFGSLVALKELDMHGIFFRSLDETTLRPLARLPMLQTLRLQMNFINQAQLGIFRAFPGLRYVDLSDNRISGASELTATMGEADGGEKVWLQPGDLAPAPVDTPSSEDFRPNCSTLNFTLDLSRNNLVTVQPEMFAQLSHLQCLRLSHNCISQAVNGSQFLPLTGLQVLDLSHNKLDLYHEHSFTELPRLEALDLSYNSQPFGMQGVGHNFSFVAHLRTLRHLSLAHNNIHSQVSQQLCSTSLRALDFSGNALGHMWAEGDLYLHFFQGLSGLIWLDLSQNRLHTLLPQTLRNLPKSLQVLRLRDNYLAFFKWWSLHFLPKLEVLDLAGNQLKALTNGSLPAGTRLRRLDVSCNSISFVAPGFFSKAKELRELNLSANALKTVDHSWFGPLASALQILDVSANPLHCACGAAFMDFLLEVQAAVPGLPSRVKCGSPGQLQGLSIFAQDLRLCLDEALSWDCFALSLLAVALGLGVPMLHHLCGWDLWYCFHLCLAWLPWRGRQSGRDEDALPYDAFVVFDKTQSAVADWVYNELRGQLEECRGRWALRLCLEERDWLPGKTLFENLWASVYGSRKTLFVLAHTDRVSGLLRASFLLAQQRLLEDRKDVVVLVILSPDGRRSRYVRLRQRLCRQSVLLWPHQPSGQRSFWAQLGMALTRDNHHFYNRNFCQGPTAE
# Experiment: NF-κB-luciferase activation of stably transfected 293-hTLR9-luc cells by CpG ODN 2006 in presence of inhibitory ODN 2088 and/or chloroquine
# Format: cell-based
# Conditions: as Table 1: ODN 2088 0.05 μM
# Protocol: To generate stable clones expressing human TLR9, murine TLR9, or either TLR9 with the NF-κB-luc reporter plasmid, 293 cells were transfected in 10 cm plates (2×10^6 cells/plate) with 16 μg of DNA and selected with 0.7 mg/mL G418 (PAA Laboratories GmbH, Cölbe, Germany). The clones were also screened for IL-8 production or NF-κB-luciferase activity after stimulation with ODN. Four different types of clones were generated.
# NF-κB activation was measured by determining luciferase activity of cells 16 h later. Results are given as fold induction above medium background.
Compound,Fold increase of EC50 compared to ODN 2006 + TE (chloroquine 0.039 μg/mL),Fold increase of EC50 compared to ODN 2006 + TE (chloroquine 0.078 μg/mL),Fold increase of EC50 compared to ODN 2006 + TE (chloroquine 0.3125 μg/mL)
"ODN 2088: inhibitory ODN, TCCTGGCGGGGAAGT, SEQ ID NO:7 (chemistry not given here)",14.7 fold,4.2 fold,8.0 fold
"CCN(CC)CCCC(C)Nc1ccnc2cc(Cl)ccc12 (stereo not drawn) [Chloroquine, chloroquine]",2.3 fold,2.6 fold,3.6 fold
